Results published in patent publication US20070128217A1 (priority 2003, published 2007).

Assays:
[1] = system: control sera (pooled serum of ten healthy LUMC hospital workers; commercial negative donor pooled serum from the Dutch bloodbank); type: binding, human; parameters: Binding of Control serum LUMC to linear peptides / Binding of Control serum Blood-bank to linear peptides / Binding of Control serum LUMC to looped peptides / Binding of Control Serum Blood-Bank to Looped peptides / Binding of Control serum LUMC to linear peptides of the protein M of SARS-CoV Urbani / Binding of Control serum Blood-bank to linear peptides of the protein M of SARS-CoV Urbani / Binding of Control serum LUMC to looped peptides of the protein M of SARS-CoV Urbani / Binding of Control Serum Blood-Bank to Looped peptides of the protein M of SARS-CoV Urbani: unit not given here
[2] = system: rabbit serum obtained by immunizing a rabbit with the SARS-CoV strain Frankfurt 1; type: binding; parameters: Binding of a rabbit serum to linear peptides / Binding of a rabbit serum to looped peptides / Rabbit serum linear peptides / Rabbit serum looped peptides / Binding of a rabbit serum to linear peptides of protein N of SARS-CoV Urbani (Rabbit serum linear peptides) / Binding of a rabbit serum to looped/cyclic peptides of protein N of SARS-CoV Urbani (Rabbit serum looped peptides): unit not given here
[3] = system: antibodies in sera from SARS patients (sera 1a, 1b, 2, 6, 37, 62, London, SARS-yellow, SARS-green); type: binding, human; parameters: Binding of serum 6 to linear peptides of protein X1 of SARS-CoV Urbani / Binding of serum 37 to linear peptides of protein X1 of SARS-CoV Urbani / Binding of serum 6 to looped/cyclic peptide (PEPSCAN-ELISA) / Binding of serum 37 to looped/cyclic peptide (PEPSCAN-ELISA) / Binding of serum 37 to looped/cyclic peptides of protein X1 of SARS-CoV Urbani / Binding of serum 6 to linear peptides of protein X2 / Binding of serum 37 to linear peptides of protein X2 / Binding of serum 37 to looped/cyclic peptides of protein X2 of SARS-CoV Urbani / Binding of serum 6 to linear peptides of protein M of SARS-CoV Urbani / Binding of serum 37 to linear peptides of protein M of SARS-CoV Urbani / Binding of serum 6 to looped/cyclic peptides of protein M of SARS-CoV Urbani / Binding of serum 37 to looped/cyclic peptides of protein M of SARS-CoV Urbani / Binding of serum 6 to linear peptides of protein X3 of SARS-CoV Urbani / Binding of serum 37 to linear peptides of protein X3 of SARS-CoV Urbani / Binding of serum 37 to looped/cyclic peptides of protein X3 of SARS-CoV Urbani / Binding of serum 6 to linear peptides of protein X4 of SARS-CoV Urbani / Binding of serum 37 to linear peptides of protein X4 of SARS-CoV Urbani / Binding of serum 37 to looped/cyclic peptides of protein X4 of SARS-CoV Urbani / Binding of serum 6 to linear peptides of protein X5 of SARS-CoV Urbani / Binding of serum 37 to linear peptides of protein X5 of SARS-CoV Urbani / Binding of serum 37 to looped/cyclic peptides of protein X5 of SARS-CoV Urbani / Binding of serum 6 to linear peptides of protein N of SARS-CoV Urbani / Binding of serum 37 to linear peptides of protein N of SARS-CoV Urbani / Binding of serum 6 to linear peptide (PEPSCAN-ELISA) / Binding of serum 1a to looped/cyclic peptides of protein N of SARS-CoV Urbani / Binding of serum 1b to looped/cyclic peptides of protein N of SARS-CoV Urbani / Binding of serum 2 to looped/cyclic peptides of protein N of SARS-CoV Urbani / Binding of serum 6 to looped/cyclic peptides of protein N of SARS-CoV Urbani / Binding of serum 37 to looped/cyclic peptides of protein N of SARS-CoV Urbani / Binding of serum 62 to looped/cyclic peptides of protein N of SARS-CoV Urbani / Binding of serum London to looped/cyclic peptides of protein N of SARS-CoV Urbani / Binding of serum SARS-green to looped/cyclic peptides of protein N of SARS-CoV Urbani: unit not given here
[4] = system: recombinant human anti-SARS-CoV antibody 03-018; type: binding; parameters: Binding of antibody 03-018 to linear peptides of the N protein of SARS-CoV Urbani / Binding of antibody 03-018 to looped/cyclic peptides of the N protein of SARS-CoV Urbani: unit not given here

Sequence	Binding of a rabbit serum to linear peptides of protein N of SARS-CoV Urbani (Rabbit serum linear peptides) [2]	Binding of a rabbit serum to looped/cyclic peptides of protein N of SARS-CoV Urbani (Rabbit serum looped peptides) [2]	Binding of serum 1a to linear peptides of protein N of SARS-CoV Urbani [3]	Binding of serum 1a to looped/cyclic peptides of protein N of SARS-CoV Urbani [3]	Binding of serum 1b to linear peptides of protein N of SARS-CoV Urbani [3]	Binding of serum 1b to looped/cyclic peptides of protein N of SARS-CoV Urbani [3]	Binding of serum 2 to linear peptides of protein N of SARS-CoV Urbani [3]	Binding of serum 2 to looped/cyclic peptides of protein N of SARS-CoV Urbani [3]	Binding of serum 6 to linear peptides of protein N of SARS-CoV Urbani [3]	Binding of serum 6 to looped/cyclic peptides of protein N of SARS-CoV Urbani [3]	Binding of serum 37 to linear peptides of protein N of SARS-CoV Urbani [3]	Binding of serum 37 to looped/cyclic peptides of protein N of SARS-CoV Urbani [3]	Binding of serum 62 to linear peptides of protein N of SARS-CoV Urbani [3]	Binding of serum 62 to looped/cyclic peptides of protein N of SARS-CoV Urbani [3]	Binding of serum London to linear peptides of protein N of SARS-CoV Urbani [3]	Binding of serum London to looped/cyclic peptides of protein N of SARS-CoV Urbani [3]	Binding of serum SARS-green to linear peptides of protein N of SARS-CoV Urbani [3]	Binding of serum SARS-green to looped/cyclic peptides of protein N of SARS-CoV Urbani [3]	Binding of serum SARS-yellow to linear peptides of protein N of SARS-CoV Urbani [3]	Binding of serum SARS-yellow to looped/cyclic peptides of protein N of SARS-CoV Urbani [3]	further results
PQGLPNNTASWFTAL	0.1	0.6	0.2	0.5	0.1	0.3	0.2	0.6	0.1	0.3	0.7	1.0	0.7	0.9	0.4	0.6	0.2	0.4	0.5	0.9	Binding of Control Serum Blood-Bank to Looped peptides [1]: 0.9; Binding of Control serum Blood-bank to linear peptides [1]: 0.7; Binding of Control serum LUMC to linear peptides [1]: 0.7; Binding of Control serum LUMC to looped peptides [1]: 0.9; Binding of antibody 03-018 to linear peptides of the N protein of SARS-CoV Urbani [4]: 0.1; Binding of antibody 03-018 to looped/cyclic peptides of the N protein of SARS-CoV Urbani [4]: 0.3
PQIAQFAPSASAFFG	0.1	0.5	0.2	0.4	0.1	0.3	0.2	0.4	0.1	0.3	0.6	0.7	0.6	0.7	0.5	0.5	0.6	0.4	0.6	0.5	Control Serum Blood-Bank Looped peptides [1]: 0.8; Control serum Blood-bank linear peptides [1]: 0.7; Control serum LUMC linear peptides [1]: 0.5; Control serum LUMC looped peptides [1]: 0.7; Binding of antibody 03-018 to linear peptides of the N protein of SARS-CoV Urbani [4]: 0.1; Binding of antibody 03-018 to looped/cyclic peptides of the N protein of SARS-CoV Urbani [4]: 0.2
PRWYFYYLGTGPEAS	0.2	0.6	0.3	0.4	0.2	0.3	0.2	0.5	0.2	0.3	0.9	1.0	0.7	0.8	0.5	0.5	0.5	0.9	0.6	0.8	Binding of Control Serum Blood-Bank to Looped peptides [1]: 0.7; Binding of Control serum Blood-bank to linear peptides [1]: 0.7; Binding of Control serum LUMC to linear peptides [1]: 0.6; Binding of Control serum LUMC to looped peptides [1]: 0.7; Binding of antibody 03-018 to linear peptides of the N protein of SARS-CoV Urbani [4]: 0.1; Binding of antibody 03-018 to looped/cyclic peptides of the N protein of SARS-CoV Urbani [4]: 0.2
